The values that follow come from patent publication US5036008A, “Antitumor antibiotic BU-3285T” (Bristol-Myers Company, priority 1990, dated 1991).

Converted amounts (≈) assume the structure as drawn.

One test relates to Piricularia oryzae D91. The test is described as follows: microbe, parasite or virus in culture. It counts as cell-based. The following applies: 40 h, pH 7.
A further test has as its system A. fumigatus IAM2034. The test is described as follows: microbe, parasite or virus in culture. The following applies: Aspergillus fumigatus, IAM2034, 40 h, pH 7.
The test system of test [1] is Sporothrix schenckii IF08158. The test is described as follows: microbe, parasite or virus in culture. The following applies: IF08158, 40 h, pH 7.
Procedure: (§4) In vitro antifungal activity was determined against various fungi by the serial agar dilution method. Sabouraud dextrose agar (pH 7.0) was used for the experiment. The inoculum size was adjusted to 10^6 CFU/ml. After incubation at 28° C. for 40 hours, the minimum inhibitory concentration (MIC) was examined.
The next test relates to Candida albicans IAM4888. Nature of the test: In vitro antifungal activity, serial agar dilution. The settings on record: IAM4888, 40 h, pH 7.
For another test, the system named is C. albicans A9540. The test is described as follows: In vitro antifungal activity, serial agar dilution. The settings on record: Candida albicans, A9540, 40 h, pH 7. A general note: In agar dilution the substance is mixed into plates at graded concentrations.
Test [2] concerns Cryptococcus neoformans D49. The test is described as follows: In vitro antifungal activity, serial agar dilution. The settings on record: D49, 40 h, pH 7.
Procedure: as §4
The subject of a further test is C. neoformans IAM4514. The test is described as follows: In vitro antifungal activity, serial agar dilution. The following applies: Cryptococcus neoformans, IAM4514, 40 h, pH 7.
Test [3] has as its system Aspergillus fumigatus IAM2530. The test is described as follows: In vitro antifungal activity, serial agar dilution. The settings on record: IAM2530, 40 h, pH 7.
Procedure: as §4
For a further test, the system named is A. flavus FA21436. Nature of the test: In vitro antifungal activity, serial agar dilution. The settings on record: Aspergillus flavus, FA21436, 40 h, pH 7.
In test [4] the test system is Fusarium moniliforme A2284. Nature of the test: In vitro antifungal activity, serial agar dilution. The settings on record: Fusarium verticillioides, A2284, 40 h, pH 7.
Procedure: as §4
For test [5], the system named is Trichophyton mentagrophytes D155. Nature of the test: In vitro antifungal activity, serial agar dilution. The settings on record: D155, 40 h, pH 7.
Procedure: as §4
Another test deals with T. mentagrophytes #4329. The test is described as follows: In vitro antifungal activity, serial agar dilution. The following applies: Trichophyton mentagrophytes, 40 h, pH 7.
The test system of test [6] is Blastomyces dermatidis D40. The test is described as follows: In vitro antifungal activity, serial agar dilution. The settings on record: D40, 40 h, pH 7.
Procedure: as §4
Test [7] concerns Petriellidium boydii IF08078. Nature of the test: In vitro antifungal activity, serial agar dilution. The settings on record: Scedosporium boydii, IF08078, 40 h, pH 7.
Procedure: as §4
The subject of the next test is Mucor spinosus IF05317. The test is described as follows: In vitro antifungal activity, serial agar dilution. The following applies: IF05317, 40 h, pH 7.
For test [8], the system named is B16-F10 (murine melanoma) cells. The test is described as follows: In vitro cytotoxicity (Table 6). It counts as cell-based. The following applies: Mus musculus; B16-F10, 72 hrs, neutral red. How it is done: (§1) BU-3285T was tested for in vitro cytotoxicity against several murine and human tumor cell lines and for in vivo antitumor activity in mice. Mitomycin C was used as a reference compound in both in vitro and in vivo experiments. B16-F10 (murine melanoma) and Moser (human colorectal carcinoma) cells were grown to the logarithmic phase in an enriched Eagle minimum essential medium supplemented with fetal calf serum (FCS, 10%) and kanamycin (60 μg/ml); HCT-116 (human colon carcinoma) cells were in McCoy's 5A medium supplemented with FCS (10%), penicillin (100 U/ml) and streptomycin (100 μg/ml); and P388 (murine lymphocytic leukemia) cells and its vincristine-resistant subline (P388/VCR) were in RPMI 1640 medium supplemented with FCS (10%), penicillin (100 U/ml) and streptomycin (100 μg/ml).
(§2) B16-F10, Moser, HCT-116 and P388 cells were harvested and implanted into wells of a 96-well (for B16-F10, Moser and HCT-116 cells) or a 24-well (for P388 cells) tissue culture plate with test materials at the inoculum sizes of 3×10^4, 6 ×10^4, 6×10^4 and 2×10^4 cells/ml, respectively. They were incubated at 37° C. in a humidified atmosphere of 5% CO2 and 95% air for 72 hrs. […] For P388 cells, the number of viable cells was determined by a Coulter counter.

For test [9], the system named is HCT-116 (human colon carcinoma) cells. Nature of the test: In vitro cytotoxicity (Table 6). In kind it is cell-based. The following applies: HCT-116, 72 hrs, neutral red. How it is done: as §1, §2
Test [10] deals with Moser (human colorectal carcinoma) cells. The test is described as follows: In vitro cytotoxicity (Table 6). The settings on record: Homo sapiens, 72 h. Here is the method: as §1, §2
The subject of test [11] is DNA biosynthesis in L1210 leukemia cells. The test is described as follows: Inhibition of macromolecule biosynthesis, DNA (Table 7). It counts as cell-based, murine. The settings on record: Mus musculus, L1210; 3H-thymidine, ^14 C-uridine or 3H-leucine precursor; 15 min + 60 min, 37° C.; read-out: IC50, DNA synthesis. How it is done: (§3) Inhibitory effects of BU-3285T on macromolecule biosynthesis (DNA, RNA and protein) were determined in cultured L1210 murine leukemia cells. The cells (5×10^5 cells/ml) were incubated with the compound at 37° C. for 15 minutes and then further incubated for 60 minutes after the addition of labelled precursor, ^3 H-thymidine, ^14 C-uridine or ^3 H-leucine into the cultured mixture. After washing with chilled 5% trichloroacetic acid solution, the radioactivity incorporated into the acid-insoluble fraction of the cells was determined by a liquid scintillation counter.

The test system of test [12] is RNA biosynthesis in L1210 leukemia cells. The test is described as follows: Inhibition of macromolecule biosynthesis, RNA (Table 7). In kind it is cell-based, murine. The settings on record: Mus musculus, labelled precursor, 15 min + 60 min, 37° C., read-out: IC50, RNA synthesis. How it is done:
as §3

For test [13], the system named is protein biosynthesis in L1210 leukemia cells. Nature of the test: Inhibition of macromolecule biosynthesis, protein (Table 7). In kind it is cell-based, murine. The settings on record: Mus musculus, L1210; labelled precursor; 15 min + 60 min, 37° C.; read-out: IC50, protein synthesis. How it is done: as §3
The test system of the next test is P388 leukemia. The test is described as follows: In vivo antitumor activity against P388 leukemia (Table 8). The following applies: Q1D × 3.
Another test deals with L1210 leukemia. Nature of the test: In vivo antitumor activity against L1210 leukemia (Table 9). The following applies: Q1D × 3.
The test system of another test is B16 melanoma. The following applies: reported; cited from earlier work.
Another test relates to fungi. The settings on record: reported; cited from earlier work.
Test [14] concerns B16-F10 (murine melanoma) cells. The test is described as follows: In vitro cytotoxicity (Table 14). In kind it is cell-based. The settings on record: Mus musculus, B16-F10, 72 h.
Procedure: (§5) B16-F10 (murine melanoma), HCT-116 (human colon carcinoma), A549 (human lung carcinoma) and A549/VP29 (an etoposide-resistant subline of A549) were grown in Eagle's MEM (Nissui) supplemented with FCS (fetal calf serum, 10%) and non-essential amino acids (B16-F10), or in McCoy's 5A medium (Gibco) with FCS (10%), essential and non-essential amino acids, vitamins and antibiotics (HCT-116 and both of A549) at 37° C. under a humidified atmosphere in a 5% CO2 incubator. Exponentially growing B16-F10, HCT-116 and A549 cells were harvested, counted and suspended in the culture medium at 1.5×10^4, 3×10^4 and 3×10^4 cells/ml, respectively. After planting 180 μl of cell suspension into wells of a 96-well microtiter plate on day 0, the test materials (20 μl) were added on day 1 and the plates were incubated for 72 hours. The cytotoxic activity was colorimetrically determined at 540 nm after staining viable cells with neutral red solution.
Test [15] has as its system HCT-116 (human colon carcinoma) cells. The test is described as follows: In vitro cytotoxicity (Table 14). It counts as cell-based. The following applies: HCT-116, 72 h.
Procedure: as §5
The subject of test [16] is A549 (human lung carcinoma) cells. The test is described as follows: In vitro cytotoxicity (Table 14). It counts as cell-based. The settings on record: A549, 72 h.
Procedure: as §5
For test [17], the system named is A549/VP29 (etoposide-resistant subline of A549) cells. The test is described as follows: In vitro cytotoxicity (Table 14). The settings on record: A549/VP29, 72 hours, neutral red.
Procedure: After planting 180 μl of cell suspension into wells of a 96-well microtiter plate on day 0, the test materials (20 μl) were added on day 1 and the plates were incubated for 72 hours. The cytotoxic activity was colorimetrically determined at 540 nm after staining viable cells with neutral red solution.
Setting [18] is: 0.1 mg/kg/day ip, significant if T/C ≥ 125%.
Where [19] appears, read: 0.3 mg/kg/day ip, *2 significant, T/C ≥ 125%.
[20] abbreviates: 1 mg/kg/day ip, *2 significant, T/C ≥ 125%.
Setting [21] is: 3 mg/kg/day ip, *2 significant, T/C ≥ 125%.

Procedure for A. flavus FA21436: as §4
Procedure for A. fumigatus IAM2034: as §4
Procedure for C. albicans A9540: as §4
Procedure for C. neoformans IAM4514: as §4
Procedure for Candida albicans IAM4888: as §4
Procedure for Mucor spinosus IF05317: as §4
Procedure for T. mentagrophytes #4329: as §4

As for `C[C@@H]1[C@H](O)[C@@H](C)/C=C/C=C/C=C/C=C/C=C/C=C/C=C/[C@H](O[C@@H]2O[C@H](C)[C@@H](O)[C@H](N)[C@@H]2O)C[C@@H]2O[C@](O)(C[C@@H](O)C[C@@H](O)[C@H](O)CC[C@@H](O)C[C@@H](O)CC(=O)O[C@H]1C)C[C@H](O)[C@H]2C(=O)O` [Amphotericin B], the MIC in the test on Piricularia oryzae D91 was 12.5 µg/mL (≈ 13.5 µM); against A. fumigatus IAM2034, 3.1 µg/mL (≈ 3.35 µM); in [1], above 100 µg/mL; in the test on Candida albicans IAM4888, 1.6 µg/mL (≈ 1.73 µM); against C. albicans A9540, 1.6 µg/mL (≈ 1.73 µM); in test [2] it was 0.8 µg/mL (≈ 0.866 µM). The MIC was found to be 0.8 µg/mL (≈ 0.866 µM) in the test on C. neoformans IAM4514; 3.1 µg/mL (≈ 3.35 µM) in [3]; 1.6 µg/mL (≈ 1.73 µM) in the test with A. flavus FA21436; 3.1 µg/mL (≈ 3.35 µM) in test [4]; 6.3 µg/mL (≈ 6.82 µM) in test [5]; 6.3 µg/mL (≈ 6.82 µM) in the test with T. mentagrophytes #4329. Moreover, the MIC is 12.5 µg/mL (≈ 13.5 µM) in test [6], above 100 µg/mL in [7] and 6.3 µg/mL (≈ 6.82 µM) in the test with Mucor spinosus IF05317.
As a reminder, the IC50 is the point on the concentration scale where inhibition reaches its midpoint. The term T/C denotes the ratio of treated to control. For the compound `CO[C@@]12[C@H](COC(N)=O)C3=C(C(=O)C(C)=C(N)C3=O)N1C[C@@H]1N[C@@H]12` [Mitomycin C, reference compound], the half-inhibitory concentration (IC50) in test [8] is 0.5 µg/mL (≈ 1.5 µM); in test [9] it was 0.8 µg/mL (≈ 2.39 µM); in test [10] it was 1.2 µg/mL (≈ 3.59 µM); in test [11], 1.7 µg/mL; in [12], above 100 µg/mL; in test [13], above 100 µg/mL. For the same compound, the “MST (median survival time)” value in the test with P388 leukemia (0.1 mg/kg/day ip) was 11.5 days; in the test with P388 leukemia (0.3 mg/kg/day ip), 14.0 days; in the test with P388 leukemia (1 mg/kg/day ip), 13.5 days; in the test with P388 leukemia (3 mg/kg/day ip), 20.0 days; with L1210 leukemia (0.1 mg/kg/day ip) it was 8.5 days; in the test on L1210 leukemia (0.3 mg/kg/day ip), 10.0 days. In addition, the “MST (median survival time)” value in the test with L1210 leukemia (1 mg/kg/day ip) came out at 9.5 days; with L1210 leukemia (3 mg/kg/day ip) it was 13.0 days. The T/C worked out at 115% in the test on P388 leukemia (setting [18]); 140% with P388 leukemia (setting [19]); 135% in the test on P388 leukemia (setting [20]); 200% with P388 leukemia (setting [21]); 121% in the test with L1210 leukemia (setting [18]); 143% in the test on L1210 leukemia (setting [19]). Moreover, the T/C in the test with L1210 leukemia (setting [20]) is recorded as 136%; in the test on L1210 leukemia (setting [21]), 186%.
In the case of `CC(=O)N1CCN(c2ccc(OCC3COC(Cn4ccnc4)(c4ccc(Cl)cc4Cl)O3)cc2)CC1` (stereo not drawn) [Ketoconazole], the MIC with Piricularia oryzae D91 stood at 3.1 µg/mL (≈ 5.83 µM); with A. fumigatus IAM2034, 6.3 µg/mL (≈ 11.9 µM); in test [1] it was 6.3 µg/mL (≈ 11.9 µM); in the test with Candida albicans IAM4888, 50 µg/mL (≈ 94.1 µM); in the test on C. albicans A9540, 50 µg/mL (≈ 94.1 µM); in test [2], 0.4 µg/mL (≈ 0.753 µM). Moreover, the MIC in the test on C. neoformans IAM4514 came out at 0.4 µg/mL (≈ 0.753 µM); in test [3], 3.1 µg/mL (≈ 5.83 µM); with A. flavus FA21436, 0.4 µg/mL (≈ 0.753 µM); in test [4], 6.3 µg/mL (≈ 11.9 µM); in test [5], 1.6 µg/mL (≈ 3.01 µM); with T. mentagrophytes #4329 it was 1.6 µg/mL (≈ 3.01 µM). Further, the MIC in [6] came to 0.4 µg/mL (≈ 0.753 µM); in [7], 1.6 µg/mL (≈ 3.01 µM); against Mucor spinosus IF05317, 100 µg/mL (≈ 188 µM).
Consider `C[C@@](O)(/C=C/[C@H]1CC=CC(=O)O1)[C@@H](C[C@@H](O)\C=C/C=C\C=C\CO)OP(=O)(O)O` [fostriecin], for which, in the test on B16 melanoma, the “antitumor effect against B16 melanoma” value is on record as “no antitumor effect against B16 melanoma”. Also, the antifungal activity entry with fungi is “no antifungal activity”.
Take `COc1cc([C@@H]2c3cc4c(cc3[C@@H](O[C@@H]3O[C@@H]5CO[C@@H](C)O[C@H]5[C@H](O)[C@H]3O)[C@H]3COC(=O)[C@H]23)OCO4)cc(OC)c1O` [VP16, reference compound]: the IC50 in test [14] amounted to 0.21 µg/mL (≈ 0.357 µM); in test [15] it was 5.3 µg/mL (≈ 9 µM); in test [16], 1.2 µg/mL (≈ 2.04 µM); in test [17], 40 µg/mL (≈ 68 µM).
As for `COc1cccc2c1C(=O)c1c(O)c3c(c(O)c1C2=O)C[C@@](O)(C(=O)CO)C[C@@H]3O[C@H]1C[C@H](N)[C@H](O)[C@H](C)O1` [Adriamycin, reference compound], the figures for the IC50 in test [14] and in [15] were 0.03 µg/mL (≈ 0.0552 µM) and 0.3 µg/mL (≈ 0.552 µM), respectively.
